Tests used:
[1] = tested on: HIV-1 integration; assay: HIV-1 integration, Alu-Gag real-time PCR in CEM T cells; assay type: cell-based; settings: 10 μM, DNA 6 hrs post infection, in words
Description: To assay HIV-1 integration, CEM T cells were infected with HIV-1-LUC-G virus and treated with 10 μM 1E7-03 or DMSO. Total DNA was extracted from cells using lysis buffer (10 mM Tris-HCl pH 8.0, 10 mM EDTA, 5 mM NaCl, 200 μg/ml proteinase K). The cells were lysed for 20-30 min at room temperature and proteinase K was inactivated by heating to 95°C for 5 min. For the real-time PCR analysis, 100 ng DNA was amplified using Roche Light Cycler 480 (Roche Diagnostics) and SYBR Green1 Master mix (Roche Diagnostics). PCR was carried with initial preincubation for 5 min at 45°C and then for 3 in at 95°C followed by 45 cycles of denaturation at 95°C for 15 sec, annealing and extension at 60°C for 45 sec, and final extension at 72°C for 10 sec. Integrated HIV-1 DNA was amplified using the following primers: Alu forward 5'-[…]-3', and Gag reverse 5'-[…]-3'.

[2] = tested on: RSP13 and β-actin mRNA in CEM T cells; assay: Cellular transcription, RSP13 and β-actin mRNA by real-time RT-PCR; assay type: cell-based; settings: 10 μM, in words
Description: For quantitative analysis of HIV-1 RNA, CEM T cells were infected with HIV-1-LUC-G virus. Cells were treated with 10 μM 1E7-03, 10 μM DP1, 10 μM DP3, 5 μM AZT or 5 μM 3TC and control cells were untreated or treated with DMSO. Total RNA was isolated using Trizol Reagent (Invitrogen, Carlsbad, CA) according to the manufacturer's protocol. Total RNA (100 ng) was reverse transcribed to cDNA using Superscript™ RT-PCR kit (Invitrogen, Carlsbad, CA). Hexamers and oligo-dT were used as primers. For real-time PCR analysis, cDNA was amplified using Roche LightCycler 480 (Roche Diagnostics) and SYBR Green1 Master mix (Roche Diagnostics). PCR was run for 45 cycles and each cycle included denaturation at 95°C for 10 seconds, annealing at 60°C for 10 seconds, and extension at 72°C for 10 seconds. Quantification of env and gag was carried using 18S RNA as a normalization standard. Quantification of housekeeping genes, β-actin and RSP13 was carried relative to 18S RNA. Mean Cp values were determined and ΔΔCt method was used to calculate relative expression levels. Unpaired t-test was used to test statistical significance.
The following primer sequences were used: env, forward - […], reverse-[…]; gag, forward- […], reverse- […]; β-actin, forward- […], reverse-[…]; RSP13, forward- […], reverse- […]; and 18SrRNA, forward- […], reverse- […].

Structure (SMILES): CCNC(=O)NC(=O)C(C)OC(=O)c1c2c(nc3ccccc13)/C(=C/c1ccc(OC)c(OC)c1)CC2 (stereo not drawn) [1E7-03]
- effect on HIV-1 integration [1]: did not show any significant effect
- RSP13 mRNA expression [2]: slight induction
- β-actin mRNA expression [2]: slight induction

Source: article PMC5652740, “Inhibition of HIV-1 infection in humanized mice and metabolic stability of protein phosphatase-1-targeting small molecule 1E7-03” (Oncotarget, 2017)
